ChEMBL document CHEMBL1151648, “The Sesquiterpenes of Lactarius vellereus and Their Role in a Proposed Chemical Defense System” (J Nat Prod, 1985)

Assays:
Assay type in all cases: functional
Escherichia coli = assay: Antimicrobial activity against Escherichia coli by Kirby-Bauer growth inhibition assay
Micrococcus luteus = assay: Antimicrobial activity against Micrococcus luteus by Kirby-Bauer growth inhibition assay
Candida albicans = assay: Antimicrobial activity against Candida albicans by Kirby-Bauer growth inhibition assay

For `CC1(C)C[C@H]2C=C(C=O)[C@]3(C=O)C[C@]3(C)[C@H]2C1` [ISOVELLERAL], the Activity (Escherichia coli) was 15 µg, the Activity (Micrococcus luteus) was 2 µg and the Activity (Candida albicans) was 2 µg.

For `CC1(C)C[C@H]2C=C3COC(O)[C@]34C[C@]4(C)[C@H]2C1` (stereo not given in full) [ISOVELLEROL], the Activity (Escherichia coli) was >1000 µg, the Activity (Micrococcus luteus) was 300 µg and the Activity (Candida albicans) was 50 µg.

`C[C@H]1C=C(C=O)C(C=O)=C[C@@H]2CC(C)(C)C[C@@H]21` [LACTARANE] was tested, and the Activity (Escherichia coli) was 50 µg, the Activity (Micrococcus luteus) was 15 µg and the Activity (Candida albicans) was 2 µg.

`C[C@H]1C=C(CO)C(CO)=C[C@@H]2CC(C)(C)C[C@@H]21` [VELLERDIOL] was tested, and the Activity (Escherichia coli) was >1000 µg, the Activity (Micrococcus luteus) was >1000 µg and the Activity (Candida albicans) was >1000 µg.

`C[C@H]1C=C(C=O)C(CO)=C[C@@H]2CC(C)(C)C[C@@H]21` [VELLEROL] was tested, and the Activity (Escherichia coli) was >1000 µg, the Activity (Micrococcus luteus) was 300 µg and the Activity (Candida albicans) was 100 µg.
